Results: US9890106B2, “Anti-cancer lead molecule” (KING ABDULLAH UNIVERSITY OF SCIENCE AND TECHNOLOGY, priority 2012, dated 2018)
Values joined by “and” are separate entries in the source; they are usually repeats but may differ in a detail not shown here. Equal values may be shown once. Read-outs that look alike come from different tables or passages of the source.

Key:
MCF-7 cells [1] = assay: APOPercentage dye-uptake apoptosis assay, MCF-7; assay type: cell-based, human
Protocol: (§1) To further test if the cancer cells in present investigation are dying via apoptosis, a dye inclusion assay called APOPercentage was performed. APOPercentage™ is a dye-uptake assay that detects apoptotic cells during phospholipid phosphatidylserine (PS) trans-membrane movement. It has been established previously that APOPercentage™ can be used to detect early stages of apoptosis as efficiently as other technologies like Annexin V.
(§2) The cells were plated in 96 well plates at a density of 5×10^3 cells per well in triplicate in 90 μl of media. The cells were treated with 10 μl of desired concentration of plumbagin and derivative ‘A’ in DMEM media. The cells were incubated at 37° C. for 12 hr and 24 hr in different plates. 5 mM H2O2 was treated for 30 minutes to 1 hour as a positive control. The cells were stained with APOPercentage dye as per instructions from the vendor (Biocolor, UK). The cells were photographed with Nikon TS100 microscope. The OD was measured at 550 nm absorbance using BMG Pherastar and percentage of cells taking up APOPercentage dye was calculated.

[2] = test system: HepG2 (Hepatocellular carcinoma) cell line; assay: MTT cytotoxicity assay, HepG2 (in vitro hepatotoxicity model); settings: for IC50: read-out: IC50 against HepG2
Protocol: (§3) The cytotoxicity of plumbagin and derivative ‘A’ was estimated by MTT assay. Cells were plated in a 384-well culture plates (2000 cells per well in 20 μl of media) for 24 h and cells were treated with various concentrations (0, 1.0, 5.0, 10.0, 20.0, 40.0, 80.0 and 100.0 μM) for 12 hr, 24 hr, 36 hr and 48 hr. Following desired incubation time, 5 μl of sterile 5 mg/ml MTT (3-(4,5-Dimethylthiazol-z-yl)-2,5diphenyltetrazolium bromide) (Sigma) dissolved in PBS was added to each well and the cells were incubated for another 4 hr followed by the addition of 30 μl of solubilisation solution (10% SDS, 10 mM HCl) and incubation for 16 hr at 37° C. The OD of each well at 595 nm was determined using a microtiter plate reader (BMG Pherastar).

MCF-7 cells [3] = assay: Microarray expression and pathway analysis in MCF-7 cells; assay type: cell-based, human; settings: for 'Atherosclerosis signaling' pathway: MCF-7 induced with 5 and 10 μM, IPA pathway mapping
Protocol: Microarray analysis was performed in an effort to identify the possible mechanism of action of derivative ‘A’. The MCF-7 cells induced with 5 and 10 μM of derivative ‘A’ and plumbagin were subjected to microarray experiments and the fold-change in expression was calculated as compared to untreated samples. The lists of differentially expressed genes were mapped to pathways using Ingenuity Pathway Analysis (IPA) tool and several key pathways affected by treatment of derivative ‘A’ and plumbagin were identified. ‘Atherosclerosis signaling’ was one of the key pathways that were affected by derivative ‘A’ and not the plumbagin.

[4] = test system: MCF-7 (human breast cancer cell line); assay: MTT cytotoxicity assay, MCF-7
Protocol: as §3

[5] = General toxicity in nude mice (mortality, tolerance, body weight); assay type: in vivo
Protocol: (§4) When the tumor size reached a volume of 150 (150-220) mm^3, the tumor-bearing nude mice derived from MCF-7 cells were randomly assigned into 3 groups (10 mice/group): Group 1 was served as vehicle group (25% PEG400, 200 μl/20 g mouse, i.p, qd for 21 days and 25% PEG400, 400 μl/20g mouse, i.p, qd for 13 days), group 2 was administrated with derivative ‘A’ (5 mg/kg for 21 days and 10 mg/kg for 13 days, i.p, qd), group 3 was administrated with plumbagin (2 mg/kg for 21 days, i.p, qd). The administration period lasted for 3 weeks and 5 weeks. The detailed sacrificing schedule is described in section 5.
If abnormal appearance and behavior or signs of morbidity and/or mortality was seen through the cage side observation, the veterinarian would be notified and proper physical examination and/or necropsy would be performed. The food consumption in each group would be recorded. Frequency: daily just after the cell inoculation and twice a day thereafter starting on first dosing.
(§5) The tumor volume was measured every other day with calipers, and the body weight was measured immediately before measuring the tumor volume throughout the whole study. If the body weight loss is approaching 20%, stop dosing or decreased dosage will be carried out.
The use of different treatment concentrations (dosages) of derivative ‘A’ and plumbagin was due to the high toxicity of plumbagin at 5 mg/kg dose (8 mice died due to toxicity in first few days).

[6] = test system: BJ cell line (human normal fibroblast cells); assay: MTT cytotoxicity assay, BJ normal fibroblasts
Protocol: as §3

MCF-7 tumor = assay: MCF-7 xenograft tumor inhibition in nude mice; assay type: in vivo; set-up: Tumor weight at autopsy, individual mouse (1-5) / Tumor weight at autopsy, AV: unit not given here; settings: for Tumor volume measured externally, AV / Tumor weight at autopsy, AV / Tumor volume measured externally, individual mouse (1-5) / Tumor weight at autopsy, individual mouse (1-5) / Tumor inhibition rate (C − T)/C × 100%, tumor volume / Tumor inhibition rate (C − T)/C × 100%, tumor weight: Compound A 5 mg/kg, Compound P 2 mg/kg, i.p, qd*21 days; for Tumor inhibition rate (C − T)/C × 100%, tumor volume: based on tumor volume by calipers; for Tumor inhibition rate (C − T)/C × 100%, tumor weight: based on tumor weight at autopsy
Protocol: Amplified and implanted (S.C.) the cancer cells (MCF-7) into 4 nude mice with 1.0×10^7 cells in 0.1 ml PBS plus matrigel (1:1) /mouse, when tumors reach 300-500 mm^3, the tumor masses were harvested, cut into small pieces of approximately 1-2 mm^3, and then surgically implanted into the 42 new nude mice for model set up (eventually 30 tumor-bearing mice are selected).
as §4, §5
Tumor sizes were measured every other day in two dimensions using a caliper, and the volume were expressed in mm^3 using the formula: V=½×a×b^2 where a and b are the long and short diameters of the tumor, respectively.
The tumor mass were weighed and photographed at the end of the experiment after harvested.
Inhibition rate (%)=(average tumor volume of control group-average cancer volume of test group)/average tumor volume of control group ×100%

[7] = From the text: At the end of the experiment (the 22nd day after initiating drug treatment), the blood from some tumor-bearing mice per group (4 mice from the group 1, 5 mice from the group 2, 4 mice from the group 3) were collected by cardiac puncture, and the mice were sacrificed by cervical dislocation while under deep anesthesia. The other tumor-bearing mice from each group (5 mice from the group 1, 5 mice from the group 2) were sacrificed after another 13 days treatment (the 35th day after initiating drug treatment), the blood was collected while sacrificing the mice. The tumor samples were harvested, weighed, cut into small pieces and snap frozen in liquid nitrogen for RNA extraction. The liver were harvested and fixed in 10% NBF, and embedded in paraffin for histology analysis.
Blood were collected from all animals by terminal bleed for subsequent serum preparation, and serum was prepared at the end of the study for each animal. Serum samples were frozen in microcentrifuge tube at −80° C. To test the liver toxicity of the two compounds, biochemical dictators (ALT, AST) were analyzed in all the serum samples no more than 3 days after collection. The excess serum samples would be sent to client.
The serum was collected as explained above in methods and was used to assess the activity of ALT (alanine aminotransferase) and AST (aspartate aminotransferase).

[8] = Liver tissue H&E staining; assay type: in vivo, nude mice; settings: FIG. 12
Protocol: To test the liver toxicity of the two compounds, livers were harvested from all animals while sacrificing the animals. One piece of the liver was fixed in 10% NBF, and embeded in paraffin for pathology analysis, 1 paraffin block was prepared from each liver sample, 2 slides were used for H&E staining.
The following indications were examined on the photographs for liver tissue H&E staining (FIG. 12): (1) If the liver cells produce fatty degeneration, necrosis, hepatic lobule inflammation or not; (2) If the hepaticus sinus produce dilation or hyperaemia or not; (3) If the hepaticus portal area produce the inflammation or fibrous tissue hyperplasia or not. According to pathology degree from low to high: no lesion “−”, minor lesion “±”, low lesion “+”, middle lesion “++”, high lesion “+++”, highest lesion “++++”. […] The vehicle control is rather showing more toxicity to liver as compared to compounds under testing.

BJ cells = assay: APOPercentage dye-uptake apoptosis assay, BJ; assay type: cell-based, human
Protocol: as §1, §2

[9] = after 24 hr (20 μM per preceding sentence)
[10] = MTT time-course screening (12, 24, 36, 48 hr)

CC1=CC(=O)c2c(O)cccc2C1=O [plumbagin, 5-hydroxy-2-methyl-1,4-naphthoquinone, reference compound]
apoptosis in cancer cells (MCF-7 cells [1]; 5 μM, within 24 hr of treatment): induces apoptosis
IC50 ([2]; Homo sapiens, HepG2, 24 h): 10.2 µM
'Atherosclerosis signaling' pathway (MCF-7 cells [3]): not
inhibition at 5 µM ([4]; Homo sapiens, MCF7, 12 h, read-out: inhibits metabolic activity of cancer cells): 90%
tolerance by mice (body weight loss) ([5]; 2 mg/kg dose, separate regimen with 1, 2 and 3 mg/kg): well tolerated
inhibition at 10 µM ([6]; Homo sapiens, BJ, 12 h, read-out: inhibits metabolic activity of normal cells BJ): ~70%
Tumor volume measured externally, AV (MCF-7 tumor): 560.2 mm^3
Tumor weight at autopsy, AV (MCF-7 tumor): 0.6020
Tumor volume measured externally, individual mouse (1-5) (MCF-7 tumor; listed as Compound P): 1441.7 mm^3 and 260.9 mm^3 and 234.5 mm^3 and 303.8 mm^3
Tumor weight at autopsy, individual mouse (1-5) (MCF-7 tumor; listed as Compound P): 1.3530 and 0.4301 and 0.3675 and 0.2574
Tumor inhibition rate (C − T)/C × 100%, tumor volume (MCF-7 tumor): 17.07%
Tumor inhibition rate (C − T)/C × 100%, tumor weight (MCF-7 tumor): −5.35%

CC(=O)Oc1cccc2c1C(=O)C=C(C)C2=O [derivative ‘A’, acetyl plumbagin]
apoptosis induced in cancer cells (MCF-7 cells [1]; 10 μM, 24 hr): about 50%
cancer cells undergoing apoptosis (MCF-7 cells [1]; [9]): 100%
hepatotoxicity (data based on HepG2 cell line) [2, 10]: negligible
IC50 ([2]; HepG2, 24 hr of treatment): 41.2 µM
gene families down-regulated as compared to untreated samples (MCF-7 cells [3]; MCF-7, 10 μM, interleukins, MMPs, CXCL family members): > 2 fold
'Atherosclerosis signaling' pathway (MCF-7 cells [3]): affected
cytotoxicity in MCF-7 ([4]; 10 μM, 12 hr of treatment): comparative to plumbagin
inhibits metabolic activity of cancer cells ([4]; 10 μM, after 12 hr of treatment (FIG. 2)): 90%
activity against MCF-7 cells [4, 10]: selective apoptotic activity
ALT and AST values ([7]; in vivo summary): low
mean ALT value (FIG. 10) ([7]; outliers removed): lower than plumbagin and even lower than vehicle treated mice
liver toxicity by H&E staining of liver tissue [8]: less toxic to liver as compared to plumbagin
animal deaths with treatment ([5]; 5 mg/kg 21 days, 10 mg/kg 13 days, i.p, qd): No animal died
body weight loss ([5]; in the course of the treatment): minimum
toxicity against BJ cell line ([6]; 10 μM, 12 hr): almost nil
toxicity against BJ cell line, times less than plumbagin ([6]; 10 μM, 24 hr, compared to plumbagin at the same concentration): ~20 times
normal cells BJ inhibited ([6]; 20 μM, after 36 hr of treatment (FIG. 2)): 20%
effect on normal fibroblasts [6, 10]: relatively unaffected
toxicity in BJ cell line, folds less than Plumbagin ([6]; after 36 hr of induction): ~4.5 folds
safety for normal cells (BJ cells; 10 μM, treatment for 24 hr): safe
normal cells undergoing apoptosis (BJ cells; [9]): 20%
effect on normal cells (growth inhibition and apoptosis) (BJ cells; up to 20 μM, treatment for 12 hr): relatively unaffected
Tumor volume measured externally, AV (MCF-7 tumor): 420.9 mm^3
Tumor volume measured externally, individual mouse (1-5) (MCF-7 tumor): 493.1 mm^3 and 595.4 mm^3 and 151.4 mm^3 and 486.0 mm^3 and 378.5 mm^3
Tumor weight at autopsy, AV (MCF-7 tumor): 0.3145
Tumor weight at autopsy, individual mouse (1-5) (MCF-7 tumor): 0.3930 and 0.3862 and 0.3802 and 0.3290 and 0.0843
Tumor inhibition rate (C − T)/C × 100%, tumor volume (MCF-7 tumor): 37.69%
Tumor inhibition rate (C − T)/C × 100%, tumor weight (MCF-7 tumor): 44.96%
tumor size (FIGS. 6A-6B) (MCF-7 tumor; group of treated mice versus other groups): smaller
